In ChEMBL document CHEMBL2073976, “Circumvention of multidrug resistance by a newly synthesized quinoline derivative, MS-073” (Cancer Res, 1991) one finds Activity data, which are given here for 1 molecule.

The target in this data set is ATP-dependent translocase ABCB1 (Homo sapiens, UniProt P08183). Put plainly: TP_TRANSPORTER: increase in VCR intracellular accumulation (VCR: 0.03 uM, MS-073: 3 uM) in K562/ADM cells. The following applies: k562/adr. In kind it is functional, cell-based.

Each structure is given as a SMILES string.

Sequence of ATP-dependent translocase ABCB1 (P08183 whole entry): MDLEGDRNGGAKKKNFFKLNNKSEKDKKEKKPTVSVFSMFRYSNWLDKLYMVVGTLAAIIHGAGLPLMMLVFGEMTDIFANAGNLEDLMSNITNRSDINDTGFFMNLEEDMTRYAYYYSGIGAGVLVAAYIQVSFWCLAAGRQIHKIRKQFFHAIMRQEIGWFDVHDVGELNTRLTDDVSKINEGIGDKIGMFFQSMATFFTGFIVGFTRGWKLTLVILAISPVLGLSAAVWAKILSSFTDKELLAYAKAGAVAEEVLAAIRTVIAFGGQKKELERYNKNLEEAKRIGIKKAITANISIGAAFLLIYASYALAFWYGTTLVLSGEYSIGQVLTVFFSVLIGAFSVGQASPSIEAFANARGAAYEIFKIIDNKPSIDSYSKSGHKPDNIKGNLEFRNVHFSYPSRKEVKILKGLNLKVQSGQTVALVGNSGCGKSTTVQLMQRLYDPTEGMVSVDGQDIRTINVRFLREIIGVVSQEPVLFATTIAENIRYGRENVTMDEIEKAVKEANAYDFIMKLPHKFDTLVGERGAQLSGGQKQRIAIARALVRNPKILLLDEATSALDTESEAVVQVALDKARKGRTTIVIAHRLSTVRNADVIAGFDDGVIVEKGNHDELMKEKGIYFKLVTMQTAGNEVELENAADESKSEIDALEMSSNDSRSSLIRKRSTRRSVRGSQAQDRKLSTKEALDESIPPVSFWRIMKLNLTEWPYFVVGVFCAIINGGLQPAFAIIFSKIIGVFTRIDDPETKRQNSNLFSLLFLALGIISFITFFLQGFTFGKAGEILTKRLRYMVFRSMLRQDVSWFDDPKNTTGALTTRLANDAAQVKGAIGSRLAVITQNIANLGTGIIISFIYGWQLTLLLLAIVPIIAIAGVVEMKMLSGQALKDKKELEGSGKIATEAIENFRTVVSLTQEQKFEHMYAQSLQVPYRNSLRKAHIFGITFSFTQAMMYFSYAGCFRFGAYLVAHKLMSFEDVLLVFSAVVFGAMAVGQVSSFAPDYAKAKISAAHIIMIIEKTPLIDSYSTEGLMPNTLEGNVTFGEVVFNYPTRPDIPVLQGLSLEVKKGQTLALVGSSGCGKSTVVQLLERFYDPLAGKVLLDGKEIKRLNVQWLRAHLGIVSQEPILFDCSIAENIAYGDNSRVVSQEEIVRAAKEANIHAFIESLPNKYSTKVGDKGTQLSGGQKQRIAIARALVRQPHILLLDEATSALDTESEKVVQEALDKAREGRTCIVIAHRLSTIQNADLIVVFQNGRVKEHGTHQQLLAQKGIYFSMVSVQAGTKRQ

Take `OC(COc1cccc2ncccc12)CN1CCN(C2c3ccccc3CCc3ccccc32)CC1` (stereo unspecified): the Activity result is “inhibitor [+]”.
